This is an account of results in patent publication US20250346599A1, “TRICYCLIC PHTHALAZINONE PARP INHIBITORS AND METHODS OF USE” (Valo Health, Inc., priority 2022, published 2025).

By IC50 is commonly meant the concentration at which inhibition is half-maximal.

In this assay the target is PARP1 enzyme (Homo sapiens (Human), UniProt P09874). The experiment in a line: PARP Mass Spectroscopy Assay (PARP1 enzymatic assay, nicotinamide detection). Format: biochemical. As to conditions: 5 nM PARP1, 5 uM β-NAD, 60 min at RT, NAM by mass spectrometry. The source says: Materials and Reagents: The PARP1 enzyme was purchased from BPS Bioscience (cat #80501). Tris-HCl, pH 8.0 was purchased from Corning (cat #46-031-CM). Magnesium chloride was purchased from Thermo Fisher Scientific (previously Honeywell Fluka, cat #63020-1L). All other assay components, activated DNA (cat #D4522), core histones (cat #SRP6590), β-Nicotinamide adenine dinucleotide (β-NAD—cat #N8285), 3ABA PARP1 small molecule inhibitor (from the PARP1 Enzyme Activity Assay kit, cat #17-10149), Sodium Chloride (NaCl, cat #56546-1L), Triton X-100 (cat #93443), Dithiothreitol (DTT, cat #43816-250 ML) were all purchased from Millipore Sigma.
Assay Buffer: The assay buffer includes the following reagents: 50 mM Tris-HCl pH 8.0, 50 mM NaCl, 10 mM, MgCl2, 0.01% Triton X-100, and 1 mM DTT.
PARP1 enzymatic assays were performed in 384-well plates in a total volume of 20 μL in the assay buffer. For concentration response curves, compounds were serially diluted 3-fold from 2 mM highest concentration […] to generate a 10-point curve, and 125 nL was transferred to the assay plate using the Echo acoustic dispenser for a final concentration range of 26.6 μM to […] in 10 μL reaction. Five microliters of 10 nM PARP1 enzyme and 100 nM core histones (2×) mix were added to the assay plates and pre-incubated for 30 mins at room temperature (RT). The reaction was initiated by the addition of a 5 μL of 10 uM β-NAD plus 0.02 mg/mL activated DNA (2×) mix. The reaction is incubated for 60 min at RT. The final concentration of the PARP1 enzyme and substrate concentrations were 5 nM and 5 uM, respectively. The positive control (high signal) and negative control (low signal) wells had 125 nL of DMSO in place of compounds. After the incubation is complete, the reaction is stopped by the addition of 10 μL of 10 uM of the 3ABA PARP1 inhibitor, incubated for 5 min at RT, and placed in the −80 C freezer for shipment to the Valo Health site in Branford Connecticut where mass spectrometry will be used to directly detect quantities of nicotinamide (NAM).
The percent inhibition of enzyme activity was calculated according to the following equation: […]
The values of Ssample, Shigh, and Slow in the equation refer to the NAM concentration detected in the assay wells, high control wells, and low control wells, respectively. To determine inhibitor IC50 values, % inhibition of the CRCs (concentration response curves) was fitted to the standard single-site four-parameter logistic equation.

Values joined by “and” are separate entries in the source; they are usually repeats but may differ in a detail not shown here. Equal values may be shown once.

PARP1 enzyme, sequence (P09874 whole entry): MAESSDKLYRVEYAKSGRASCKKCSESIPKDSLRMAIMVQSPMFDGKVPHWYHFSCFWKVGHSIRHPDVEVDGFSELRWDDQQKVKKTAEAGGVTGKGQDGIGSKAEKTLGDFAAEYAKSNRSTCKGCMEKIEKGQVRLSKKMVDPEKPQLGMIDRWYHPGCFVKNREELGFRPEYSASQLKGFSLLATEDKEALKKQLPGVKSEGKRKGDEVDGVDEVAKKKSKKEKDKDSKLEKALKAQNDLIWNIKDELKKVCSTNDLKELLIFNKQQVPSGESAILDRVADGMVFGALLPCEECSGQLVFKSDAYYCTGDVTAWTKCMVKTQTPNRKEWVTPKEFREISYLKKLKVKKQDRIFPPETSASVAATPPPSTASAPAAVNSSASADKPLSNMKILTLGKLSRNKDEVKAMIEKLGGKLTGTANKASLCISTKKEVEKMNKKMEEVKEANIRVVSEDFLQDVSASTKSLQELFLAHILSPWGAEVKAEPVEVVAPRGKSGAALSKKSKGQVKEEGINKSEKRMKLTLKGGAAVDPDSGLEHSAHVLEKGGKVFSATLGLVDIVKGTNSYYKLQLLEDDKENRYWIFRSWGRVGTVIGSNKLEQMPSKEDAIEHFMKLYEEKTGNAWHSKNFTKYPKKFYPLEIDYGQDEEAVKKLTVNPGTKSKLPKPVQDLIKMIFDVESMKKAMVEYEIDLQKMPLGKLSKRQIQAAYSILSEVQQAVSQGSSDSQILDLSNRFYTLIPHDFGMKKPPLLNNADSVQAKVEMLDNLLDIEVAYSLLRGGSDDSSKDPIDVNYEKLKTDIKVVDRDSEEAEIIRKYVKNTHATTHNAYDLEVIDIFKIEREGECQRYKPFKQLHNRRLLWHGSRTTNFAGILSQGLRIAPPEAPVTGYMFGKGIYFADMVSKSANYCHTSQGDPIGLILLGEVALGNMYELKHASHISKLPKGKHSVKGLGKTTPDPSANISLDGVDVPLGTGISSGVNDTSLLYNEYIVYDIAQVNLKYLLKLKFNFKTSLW

In turn, `O=c1[nH]nc2c3c(cc(F)cc13)NC(COCc1ccccc1)C2c1ccc(F)cc1F` (centres unmarked) [Compound 0267-4] came in with an IC50 of 13 nM.

Compound `O=c1[nH]nc2c3c(cc(F)cc13)N[C@@H](C1(F)CC1)[C@@H]2c1ccc(Cl)cc1F` [Compound 0255A] yielded a half-maximal inhibitory concentration (IC50) of 4 nM. The compound `O=c1[nH]nc2c3c(cc(F)cc13)NC(COCc1ccccc1)C2c1ccccc1Cl` (centres unmarked) [Compound 0257-4] came in with an IC50 of 593 nM.

Compound `O=c1[nH]nc2c3c(cc(F)cc13)N[C@@H](C1CCN(C3CCC(F)(F)CC3)CC1)[C@@H]2c1ccc(F)cc1F` [Compound 0271A] showed an IC50 of 936 nM. For `C[C@@H]1Nc2cc(F)cc3c(=O)[nH]nc(c23)[C@H]1[C@H]1CCCN(C)C1` [Compound 0198C], the IC50 amounted to 45 nM. For `O=c1[nH]nc2c3c(cc(F)cc13)N[C@H]([C@@H]1CCOC1)[C@H]2c1ccccc1Cl` [Compound 0121B], the IC50 was found to be 236 nM. In the case of `C[C@@H]1Nc2cc(F)cc3c(=O)[nH]nc(c23)[C@H]1c1ccc(C#N)cc1F` [Compound 0194B], the midpoint of inhibition, the IC50, lay at 35 nM. On to `CC1Nc2cc(F)cc3c(=O)[nH]nc(c23)C1c1ccc(Cl)cc1F` (centres unmarked) [Compound 0196-5], for which half-maximal inhibition (IC50) required 9 nM. The compound `O=c1[nH]nc2c3c(cc(F)cc13)N[C@@H](C1CCN(C3CCC(F)(F)CC3)CC1)[C@@H]2c1ccc(F)cc1F` [Compound 0271B] yielded an IC50 of 7 nM. On to `COCCN1CCC(C2Nc3cc(F)cc4c(=O)[nH]nc(c34)C2c2ccc(F)cc2F)C1` (centres unmarked) [Compound 0111-6, 12-(2,4-difluorophenyl)-7-fluoro-11-[1-(2-methoxyethyl)pyrrolidin-3-yl]-2,3,10-triazatricyclo[7.3.1.0^{5,13}]trideca-1,5(13),6,8-tetraen-4-one], for which the half-inhibitory concentration (IC50) came to 164 nM. In turn, `N#Cc1ccc([C@H]2CNc3cc(F)cc4c(=O)[nH]nc2c34)cc1F` [Compound 0186B] gave an IC50 of 41 nM.

`O=c1[nH]nc2c3c(cc(F)cc13)NC(C1CCOC1)C2c1ccccc1Cl` (centres unmarked) [Compound 0121-4] showed an IC50 of 39 nM. As for `CN1CCCC[C@@H]1[C@@H]1CNc2cc(F)cc3c(=O)[nH]nc1c23` [Compound 0192A], half-maximal inhibition (IC50) was put at 27 nM. In the case of `CC1Nc2cc(F)cc3c(=O)[nH]nc(c23)C1C1CCCN(C)C1` (centres unmarked) [Compound 0198-5] it was 244 nM. As to `C[C@@H]1Nc2cc(F)cc3c(=O)[nH]nc(c23)[C@H]1c1ccccc1Cl` [Compound 0172B, (8S,9S)-9-(2-chlorophenyl)-5-fluoro-8-methyl-2,7,8,9-tetrahydro-3H-pyrido[4,3,2-de]phthalazin-3-one], inhibition was half-maximal at 18 nM (IC50). Take `O=c1[nH]nc2c3c(cc(F)cc13)NC(C1CCNC1)C2c1ccc(F)cc1F` (centres unmarked) [Compound 0173A, 12-(2,4-difluorophenyl)-7-fluoro-11-(pyrrolidin-3-yl)-2,3,10-triazatricyclo[7.3.1.0^{5,13}]trideca-1,5(13),6,8-tetraen-4-one]: the IC50 came out at 70 nM. `CC(C)(C)C[C@H]1Nc2cc(F)cc3c(=O)[nH]nc(c23)[C@@H]1c1c(F)cc(F)cc1F` [Compound 0219A] had an IC50 of 512 nM. Consider `O=c1[nH]nc2c3c(cc(F)cc13)N[C@@H](c1c(F)cc(F)cc1F)[C@@H]2C1CCNCC1` [Compound 0098B], for which the IC50 came to 30 nM.

For the compound `CN1CCCC[C@@H]1[C@H]1CNc2cc(F)cc3c(=O)[nH]nc1c23` [Compound 0192B], the IC50 turned out to be 22 nM. In the case of `CN1CCC[C@H]([C@H]2CNc3cc(F)cc4c(=O)[nH]nc2c34)C1` [Compound 0191B] it was 37 nM. In the case of `N#Cc1ccc([C@@H]2c3n[nH]c(=O)c4cc(F)cc(c34)N[C@H]2C2CCC(F)(F)CC2)cc1F` [Compound 0214B], the IC50 amounted to 20 nM. Compound `CN1CCC([C@H]2Nc3cc(F)cc4c(=O)[nH]nc(c34)[C@@H]2c2ccccc2Cl)CC1` [Compound 0116A, (8R,9R)-9-(2-chlorophenyl)-5-fluoro-8-(1-methylpiperidin-4-yl)-2,7,8,9-tetrahydro-3H-pyrido[4,3,2-de]phthalazin-3-one] gave an IC50 of 5280 nM.

The compound `N#Cc1ccc([C@H]2c3n[nH]c(=O)c4cc(F)cc(c34)N[C@@H]2C2CCC(F)(F)CC2)cc1F` [Compound 0214A] returned an IC50 of 108 nM. Then `O=c1[nH]nc2c3c(cc(F)cc13)NC(C1CCN(C3CCC(F)(F)CC3)CC1)C2c1ccc(F)cc1F` (centres unmarked) [Compound 0271-6], with 4 nM; and `O=c1[nH]nc2c3c(cc(F)cc13)N[C@H](C1CCN(C3CCC(F)(F)CC3)CC1)[C@H]2c1ccccc1Cl` [Compound 0261A], with 896 nM; and `N#Cc1ccc([C@@H]2CNc3cc(F)cc4c(=O)[nH]nc2c34)c(F)c1` [Compound 0187A], with 9 nM. In the case of `O=c1[nH]nc2c3c(cc(F)cc13)NC(C1CCC(F)(F)CC1)C2c1c(F)cc(F)cc1F` (centres unmarked) [Compound 0212A] it was 15 nM and 20 nM; in that of `O=c1[nH]nc2c3c(cc(F)cc13)N[C@H](C1(F)CC1)[C@H]2c1ccccc1Cl` [Compound 0260A], 2 nM; in that of `O=c1[nH]nc2c3c(cc(F)cc13)NC(C1(F)CC1)[C@H]2c1ccc(Cl)cc1F` (some centres unmarked) [Compound 0255B], 103 nM.

`CC(=O)N1CCC([C@H]2Nc3cc(F)cc4c(=O)[nH]nc(c34)[C@@H]2c2ccccc2Cl)CC1` [Compound 0223A] gave a concentration for half-maximal inhibition (IC50) of 1200 nM.

For the compound `O=c1[nH]nc2c3c(cc(F)cc13)NC[C@@H]2c1ccc(Cl)c(F)c1` [Compound 0188B, (S)-9-(4-chloro-3-fluorophenyl)-5-fluoro-2,7,8,9-tetrahydro-3H-pyrido[4,3,2-de]phthalazin-3-one], half-maximal inhibition (IC50) required 99 nM. `C[C@H]1Nc2cc(F)cc3c(=O)[nH]nc(c23)[C@@H]1[C@H]1CCCCN1C` [Compound 0199A] returned an IC50 of 65 nM.

On to `O=c1[nH]nc2c3c(cc(F)cc13)NC(C1CCCN1)C2c1ccccc1Cl` (centres unmarked) [Compound 0181-6], for which it took 1200 nM to reach half-maximal inhibition (IC50).

The compound `O=c1[nH]nc2c3c(cc(F)cc13)NC[C@H]2c1ccc(F)cc1F` [Compound 0114A, (R)-9-(2,4-difluorophenyl)-5-fluoro-2,7,8,9-tetrahydro-3H-pyrido[4,3,2-de]phthalazin-3-one] gave an IC50 of 270 nM. `N#Cc1ccc(C2c3n[nH]c(=O)c4cc(F)cc(c34)NC2c2c(F)cc(F)cc2F)cc1F` (centres unmarked) [0092A; 0092B, 2-fluoro-4-(5-fluoro-3-oxo-8-(2,4,6-trifluorophenyl)-2,7,8,9-tetrahydro-3H-pyrido[4,3,2-de]phthalazin-9-yl)benzonitrile] returned an IC50 of 13 nM. Compound `CC(C)[C@H]1Nc2cc(F)cc3c(=O)[nH]nc(c23)[C@@H]1c1ccccc1Cl` [Compound 0222A] gave a half-inhibitory concentration (IC50) of 23 nM. In the case of `Cn1ncnc1[C@@H]1c2n[nH]c(=O)c3cc(F)cc(c23)N[C@H]1C1CCN(C2CCC(F)(F)CC2)CC1` [Compound 0266A] it was 1680 nM; in that of `CN1CCC[C@H]([C@@H]2CNc3cc(F)cc4c(=O)[nH]nc2c34)C1` [Compound 0191C], 50 nM. For the compound `O=c1[nH]nc2c3c(cc(F)cc13)N[C@H](CF)[C@H]2c1ccc(Cl)cc1F` [Compound 0252B], the IC50 came to 8 nM. Take `O=c1[nH]nc2c3c(cc(F)cc13)N[C@@H](CF)[C@@H]2c1ccc(Cl)cc1F` [Compound 0252A]: half-maximal inhibition (IC50) was put at 57 nM.

Compound `Cn1ncnc1[C@H]1c2n[nH]c(=O)c3cc(F)cc(c23)N[C@@H]1C1CCN(C2CCC(F)(F)CC2)CC1` [Compound 0266B] showed an IC50 of 5780 nM.
